Holding throughout (assay type): nucleic-acid assay
Assay [1] has as its system Nucleic Acid. Briefly: Induction of Escherichia coli pUC19 DNA cleavage assessed as conversion of supercoiled DNA into nicked circular form at 40 to 80 uM by neutral agarose gel electrophoresis in presence of UV light.
Assay [2] relates to Nucleic Acid. Briefly: Induction of UV light-induced Escherichia coli pUC19 DNA cleavage assessed as conversion of supercoiled DNA into nicked form at 80 uM by neutral agarose gel electrophoresis.
For assay [3], the system named is Nucleic Acid. As to the kind of experiment: Induction of UV light-induced Escherichia coli pUC19 DNA cleavage assessed as conversion of supercoiled DNA into linear form at 80 uM by neutral agarose gel electrophoresis.

Calls of active or inactive are those of the source. The calls are words filed in the database; no cut-off is given here.

In the case of `O=C(O/N=C/c1cc2ccccc2nc1Cl)c1cc([N+](=O)[O-])cc([N+](=O)[O-])c1`, the result in the assay on Nucleic Acid [1], in the assay on Nucleic Acid [2] and with Nucleic Acid [3] was Active.
As for `O=C(O/N=C/c1cc2ccccc2nc1Cl)c1ccc(Br)cc1`, the outcome in the assay on Nucleic Acid [1], in the assay on Nucleic Acid [2] and with Nucleic Acid [3] was Active.
In the case of `O=C(O/N=C/c1cc2ccccc2nc1Cl)c1ccc(Cl)cc1`, the result in the assay with Nucleic Acid [1], in the assay with Nucleic Acid [2] and in the assay on Nucleic Acid [3] was Active.
`O=C(O/N=C/c1cc2ccccc2nc1Cl)c1ccc([N+](=O)[O-])cc1`: the result in the assay with Nucleic Acid [1], with Nucleic Acid [2] and in the assay with Nucleic Acid [3] was Active.
With `O=C(O/N=C/c1cc2ccccc2nc1Cl)c1ccccc1F`, the result with Nucleic Acid [1], with Nucleic Acid [2] and with Nucleic Acid [3] was Active.
Consider `O=C(O/N=C/c1cc2ccccc2nc1Cl)c1ccccc1`, for which the result with Nucleic Acid [1] was Active. In addition, the outcome in the assay on Nucleic Acid [2] and in the assay on Nucleic Acid [3] was inactive.
For `COc1ccc(C(=O)O/N=C/c2cc3ccccc3nc2Cl)cc1`, the outcome with Nucleic Acid [1] was Active. The outcome in the assay with Nucleic Acid [2] and in the assay on Nucleic Acid [3] was inactive.
Turning to `O=C(O/N=C/c1cc2ccccc2nc1Cl)c1ccc(O)cc1`, the result with Nucleic Acid [1] was Active. For the same compound, the result in the assay with Nucleic Acid [2] and in the assay with Nucleic Acid [3] was inactive.
On to `O=C(O/N=C/c1cc2ccccc2nc1Cl)c1ccc(F)cc1`, for which the outcome in the assay with Nucleic Acid [1], in the assay on Nucleic Acid [2] and in the assay on Nucleic Acid [3] was Active.

For the origin of these results see ChEMBL document CHEMBL1938256, “Synthesis and DNA cleavage studies of novel quinoline oxime esters” (Bioorg Med Chem Lett, 2012).
